“Also recorded” adds a separate entry of the source.
Experiments:
[1] = system: Calf intestinal alkaline phosphatase (AP); assay: Effect of enhancer concentration on AP-induced chemiluminescence intensity and kinetics; comparison of optimized solutions; type: biochemical
Description: FIG. 1 is a graph showing the time profiles of the chemiluminescence intensity emitted by 100 μL of a reagent containing dioxetane 5 (4-(2,2,2-trifluoroethoxy)-4-(3-phosphoryloxyphenyl)spiro[1,2-dioxetane-3,2'-tricyclo-[3.3.1.1^3,7 ]decane] disodium salt) and various amounts of an enhancer triggered at 37° C. by addition of 1.12×10^-17 mol of alkaline phosphatase (AP). The reagent consists of a 0.33 mM solution of the dioxetane 5 in 0.2M 2-amino-2-methyl-1-propanol buffer, pH 9.6 containing 0.1, 0.25, 0.5 or 1 mg/mL of 1-(tri-n-octylphosphoniummethyl)-4-(tri-n-butyl-phosphoniummethyl)benzene dichloride (Enhancer A).
FIG. 2 is a graph showing a comparison of the time profile of the chemiluminescence intensity emitted by 100 μL of a reagent containing dioxetane 5 and various amounts of an enhancer triggered at 37° C. by addition of 1.12×10^-17 mol of AP. The reagents consist of a 0.33 mM solution of dioxetane 5 in 0.2M 2-amino-2-methyl-1-propanol buffer, pH 9.6 containing 0.01, 0.025, 0.1 or 0.5 mg/mL of polyvinylbenzyltributylphosphonium chloride co-polyvinylbenzyltri-octylphosphonium chloride (containing a 3:1 ratio of tributyl:trioctyl groups), Enhancer B, the preparation of which is described in European Patent Application 561,033 published Sep. 22, 1993.
FIG. 3 is a graph showing a comparison of the time profile of the chemiluminescence intensity emitted by 100 μL of enhanced reagents containing either dioxetane 2 (LUMIGEN PPD, Lumigen, Inc., Southfield, Mich.) or 5 triggered at 37° C. by addition of 1.12×10^-17 mol of AP. The reagents consist of 1) a 0.33 mM solution of dioxetane 2 in 0.2M 2-amino-2-methyl-1-propanol buffer, pH 9.6 containing 1.0 mg/mL of the enhancer 1-(tri-n-octylphosphoniummethyl)-4-(tri-n-butylphosphoniummethyl) benzene dichloride, and 2) a 0.33 mM solution of dioxetane 5 in 0.2M 2-amino-2-methyl-1-propanol buffer, pH 9.6 containing 0.1 mg/mL of the same enhancer.
FIG. 4 is a graph showing a comparison of the time profile of the chemiluminescence intensity emitted by 100 μL of another pair of enhanced reagents containing either dioxetane 2 or 5 triggered at 37° C. by addition of 1.12×10^-17 mol of AP. The reagents consist of 1) a 0.33 mM solution of dioxetane 2 in 0.2M 2-amino-2-methyl-1-propanol buffer, pH 9.6 containing 0.5 mg/mL of Enhancer B and 2) a 0.33 mM solution of dioxetane 5 in 0.2M 2-amino-2-methyl-1-propanol buffer, pH 9.6 containing 0.25 mg/mL of the same enhancer.
(§1) Calf intestinal alkaline phosphatase (AP) was obtained from Biozyme (San Diego, Calif.). Other chemical reagents were obtained from Aldrich Chemical Co. (Milwaukee). Nuclear magnetic resonance (NMR) spectra were obtained on a Varian Gemini 300 spectrometer as solutions in D2 O or CDCl3. Chemiluminescence intensities and rate measurements were performed using either a Turner Designs (Sunnyvale, Calif.) model TD-20e luminometer, a Luminoskan luminometer (Helsinki, Finland), a charge-coupled device camera luminometer constructed in the inventors' laboratory or a luminometer constructed in the inventors' laboratory consisting of an electrically heated sample block, an optical fiber and associated optics for light collection and a photomultiplier tube. Temperature control of samples analyzed in the commercial luminometers was achieved by means of a circulating bath connected to the instrument. Quantitative measurement of light intensities on the Turner luminometer was extended beyond the 10^4 linear range of the detector by a neutral density filter. Data collection from each of the instruments was controlled by an Apple MacIntosh SE/30 computer using the LUMISOFT data reduction program (Lumigen).
A concentration dependence study was conducted in an effort to find the optimum amount of enhancer A to use in the alkaline phosphatase-induced chemiluminescent reaction of dioxetane 5. Solutions of dioxetane 5 in 0.2M 2-methyl-2-amino-1-propanol buffer, pH 9.6 containing 0.88 mM Mg^+2 and 1, 0.5, 0.25 or 0.1 mg/mL of Enhancer A were prepared. […]

[2] = system: Calf intestinal alkaline phosphatase (AP); assay: Kinetic profile of alkaline phosphatase-triggered chemiluminescence (time to 95% of maximum intensity); type: biochemical; settings: for Time to Reach 95% of Maximum Light Intensity from Alkaline Phosphatase-Triggering: 37° C.
Description: as §1
The improvement in detection speed afforded by compositions containing the phosphate dioxetane 5 is shown in Table 2 through a comparison with dioxetane 2 of the times to reach 95% of the maximum chemiluminescence intensities produced by reaction with AP. Three different reagent compositions containing either dioxetane 2, 4-methoxy-4-(3-phosphoryloxy-phenyl)spiro[1,2-dioxetane-3,2'-tricyclo-[3.3.1.1^3,7 ]decane], disodium salt, (LUMIGEN PPD, Lumigen, Inc.) or 5 were reacted at 37° C. with AP. Composition A consists of 0.33 mM dioxetane in 0.2M 2-methyl-2-amino-1-propanol buffer (pH 9.6) containing 1.0 mg/mL 1-(tri-n-octylphosphoniummethyl)-4-(tri-n-butylphosphonium-methyl) benzene dichloride (Enhancer A); 100 μL portions were reacted with 3.36×10^-16 mol of enzyme. Composition B consists of 0.33 mM dioxetane in 0.2M 2-methyl-2-amino-1-propanol buffer (pH 9.6) containing 0.5 mg/mL of polyvinylbenzyl-tributylphosphon ium chloride co-polyvinylbenzyltrioctyl-phosphonium chloride (containing a 3:1 ratio of tributyl:trioctyl groups) the preparation of which is described in European Patent Application 561,033 published Sep. 22, 1993 (Enhancer B); 100 μL portions were reacted with 3.36×10^-16 mol of enzyme. Composition C consists of 0.33 mM dioxetane in 0.2M 2-methyl-2-amino-1-propanol buffer (pH 9.6); 500 μL portions were reacted with 1.12×10^-15 mol of enzyme.

[3] = system: Calf intestinal alkaline phosphatase (AP); assay: Relative chemiluminescence quantum yields (total light after complete dephosphorylation by AP); type: biochemical
Description: as §1
The relative chemiluminescence quantum yields of dioxetanes 2 and 5 were determined in formulations containing 1 mg/mL or 0.1 mg/mL of Enhancer A in 0.2M 2-amino-2-methyl- 1-propanol buffer, pH 9.6 containing 0.88 mM Mg^+2. A 100 μL aliquot of each reagent was completely dephosphorylated by addition of 3.36×10^-13 mol of alkaline phosphatase. The total amount of light emitted in Relative Light Units (RLU) was integrated until light emission ceased. A similar comparison was also made with 500 μL portions of formulations without any enhancer using 0.75M 2-amino-2-methyl-1-propanol buffer, pH 9.6 containing 0.88 mM Mg^+2.

[4] = system: Calf intestinal alkaline phosphatase (AP); assay: Chemiluminescent detection of alkaline phosphatase on membrane; type: biochemical; settings: 1 mg/mL Enhancer A, pH 9.6, 0.33 mM dioxetane, AP 1.1 fmol to 1.1 amol, X-ray film (FIG. 6)
Description: FIG. 6 is a digitally scanned image of an X-ray film from an experiment detecting alkaline phosphatase on a membrane with chemiluminescence. Solutions of alkaline phosphatase in water containing from 1.1×10^-15 to 1.1×10^-18 mol were applied to identical nylon membranes (Micron Separations Inc., Westboro, Mass). The membranes were air dried for 5 min and soaked briefly with a reagent containing 1 mg/mL of Enhancer A in 0.2M 2-amino-2-methyl-1-propanol buffer, pH 9.6 containing 0.88 mM MgCl and either 0.33 mM dioxetane 2 or 0.33 mM dioxetane 5. The membranes were placed between transparent plastic sheets and exposed to X-ray film (Kodak X-OMAT AR, Rochester, N.Y.).
Calf intestinal alkaline phosphatase (AP) was obtained from Biozyme (San Diego, Calif.). Other chemical reagents were obtained from Aldrich Chemical Co. (Milwaukee). Nuclear magnetic resonance (NMR) spectra were obtained on a Varian Gemini 300 spectrometer as solutions in D2 O or CDCl3. […] Temperature control of samples analyzed in the commercial luminometers was achieved by means of a circulating bath connected to the instrument. Quantitative measurement of light intensities on the Turner luminometer was extended beyond the 10^4 linear range of the detector by a neutral density filter. […]

[5] = Base-induced decomposition of hydroxy dioxetanes (first order decay of chemiluminescence); type: physicochemical; settings: 37° C.; 0.2M 2-methyl-2-amino-1-propanol buffer pH 9.6, 0.88 mM Mg+2, 1.0 mg/mL Enhancer A
Description: as §1
The first order decay of chemiluminescence of dioxetanes 1 and 3 in 0.2M 2-methyl-2-amino-1-propanol buffer, pH 9.6 containing 0.88 mM Mg^+2 and 1.0 mg/mL of Enhancer A at 37° C. was measured in a luminometer. The half-life of decay of chemiluminescence (t1/2) of dioxetanes 1 and 3 in 0.2M 2-methyl-2-amino-1-propanol buffer, pH 9.6 containing 0.88 mM Mg^+2 and 1.0 mg/mL of Enhancer A correlate with the times required to reach the maximum light intensity (Imax) in the alkaline phosphatase-triggered decomposition of dioxetanes 2 and 5 in the same buffer solution. The half-life of decay of luminescence of the hydroxy dioxetane homologous to a phosphate-protected dioxetane, therefore, is useful for predicting the grow-in kinetics of light emission for phosphatase triggering of the corresponding phosphate dioxetane. In particular, hydroxy dioxetanes which show a faster t1/2 than dioxetane 1 indicate that the corresponding phosphate dioxetanes are expected to reach Imax more quickly. Other hydroxy dioxetanes (7-9) were then examined under the same conditions.

[6] = Composition A: 0.33 mM dioxetane, 0.2M 2-methyl-2-amino-1-propanol buffer pH 9.6, 1.0 mg/mL Enhancer A, 100 μL, 3.36×10^-16 mol AP
[7] = Composition B: 0.33 mM dioxetane, buffer pH 9.6, 0.5 mg/mL Enhancer B, 100 μL, 3.36×10^-16 mol AP
[8] = Composition C: 0.33 mM dioxetane, buffer pH 9.6, no enhancer, 500 μL, 1.12×10^-15 mol AP
[9] = Enhancer A 1 mg/mL, 100 μL, 0.2M buffer pH 9.6, 3.36×10^-13 mol AP
[10] = No enhancer, 500 μL, 0.75M 2-amino-2-methyl-1-propanol buffer pH 9.6, 0.88 mM Mg+2

| SMILES | Time to Reach 95% of Maximum Light Intensity from Alkaline Phosphatase-Triggering [2, 6] [min] | Time to Reach 95% of Maximum Light Intensity from Alkaline Phosphatase-Triggering [2, 7] [min] | Time to Reach 95% of Maximum Light Intensity from Alkaline Phosphatase-Triggering [2, 8] [min] | Total Light Intensity [3, 9] | Total Light Intensity [3, 10] | t1/2 of decay of chemiluminescence [5] [min] | further results |
| --- | --- | --- | --- | --- | --- | --- | --- |
| O=P(O)(O)Oc1cccc(C2(OCC(F)(F)F)OOC23C2CC4CC(C2)CC3C4)c1 (stereo not drawn) [Dioxetane 5] | 6 | 4.3 | 4.5 | 1.23 × 10^7 RLU | 9.65 × 10^4 RLU | – | Chemiluminescence intensity and time profile compared to dioxetane 2 (1 mg/mL Enhancer A) ([1]; 0.33 mM dioxetane 5 with 0.1 mg/mL Enhancer A, 37° C., 1.12×10^-17 mol AP (FIG. 3)): reaches a significantly higher maximum intensity and reaches a plateau much more rapidly; also recorded: more intense chemiluminescence under these conditions but also a shorter delay until the maximum intensity is reached; Chemiluminescence intensity and time profile compared to dioxetane 2 (0.5 mg/mL Enhancer B) ([1]; 0.33 mM dioxetane 5 with 0.25 mg/mL Enhancer B, 37° C., 1.12×10^-17 mol AP (FIG. 4)): reaches a higher light intensity in the first 15 minutes; also recorded: a higher light intensity within the first 15 min; Plateau light intensity and rise time vs. amount of Enhancer A ([1]; Enhancer A 1, 0.5, 0.25 or 0.1 mg/mL, pH 9.6, 37° C., 1.12×10^-17 mol AP (FIG. 1)): increasingly higher plateau light intensities and slower rise times as the amount of enhancer is reduced; Rise time vs. amount of Enhancer B ([1]; Enhancer B 0.5 to 0.01 mg/mL, pH 9.6, 37° C., 1.12×10^-17 mol AP (FIG. 2)): slower rise times as the amount of enhancer is reduced from 0.5 to 0.01 mg/mL; Plateau light intensity compared to dioxetane 2 ([2]; Composition A): higher plateau light intensity; Total Light Intensity ([3]; Enhancer A 0.1 mg/mL, 100 μL, 0.2M buffer pH 9.6, 3.36×10^-13 mol AP): 1.01 × 10^7 RLU; Total light produced compared to dioxetane 2 ([3]; with or without Enhancer A): produces more light than dioxetane 2; Image intensity and detection sensitivity on nylon membrane compared to dioxetane 2 [4]: more intense images and better detection sensitivity |
| COC1(c2cccc(O)c2)OOC12C1CC3CC(C1)CC2C3 (stereo not drawn) [Dioxetane 1] | – | – | – | – | – | 15.9 | – |
| Oc1cccc(C2(OCC(F)(F)F)OOC23C2CC4CC(C2)CC3C4)c1 (stereo not drawn) [Dioxetane 3] | – | – | – | – | – | 2.0 | – |
| Oc1cccc(C2(OCC(F)F)OOC23C2CC4CC(C2)CC3C4)c1 (stereo not drawn) [Dioxetane 7] | – | – | – | – | – | 2.8 | – |
| Oc1cccc(C2(OCCF)OOC23C2CC4CC(C2)CC3C4)c1 (stereo not drawn) [Dioxetane 8] | – | – | – | – | – | 6.1 | – |
| COC1(c2cccc(OP(=O)(O)O)c2)OOC12C1CC3CC(C1)CC2C3 (stereo not drawn) [Dioxetane 2] | 32 | 37 | 6 | 9.24 × 10^6 RLU | 4.41 × 10^4 RLU | – | Rise time to maximum light intensity ([1]; Enhancer B reduced from 3 mg/mL to 0.1 mg/mL): essentially constant at an hour or more; Rise time to maximum light intensity ([1]; all concentrations of Enhancer A from 0.1 mg/mL to 3 mg/mL): an hour or more |
